Molecules are shown by their SMILES. Some results are limits rather than exact numbers.

Type in all cases: cell-based
One experiment addresses Mer (Homo sapiens (Human), UniProt Q12866). In words: Mer autophosphorylation ELISA in transient transfected 293A cells. The settings on record: cellular, MERTK transfected 293A cells. The method, then: 293A cells (Thermo Fisher #R70507) were seeded at 1.5×10^6 cells/well onto 100 mm dish (Greiner #664169), in DMEM (Thermo Fisher #11995-040) containing 10% FBS (Thermo Fisher #26140-079), 1% MEM NEAA (Thermo Fisher #11140-050), 1% GlutaMax (Thermo Fisher #35050-061), and 1% Penicillin Streptomycin (Thermo Fisher #15140-122). 293A cells were incubated at 37° C., 5% CO2 for 24 h and then transfected with 6 μg MERTK DNA (Genecopoeia #EX-Z8208-M02) using TransIT LT1 transfection reagent (Mirus-Bio #MIR2305). After 24 h incubation, the transfected 293A cells were seeded at 1×10^5 cells/well onto 96-well plates (Corning #3904) in DMEM growth medium overnight. Test compounds were serially diluted to produce an 8-point dose curve in fresh serum-free medium to a final concentration of 0.3% DMSO (vehicle) and added to the cells and incubated for 1 h. Cells were then immediately lysed with 150 μL of cold 1× lysis buffer [20 mM Tris, 137 mM sodium chloride, 2 mM EDTA, 10% glycerol, 1% NP-40 alternative, 1 mM activated sodium orthovanadate, 1 mM PefaBloc SC (Sigma-Aldrich #11429868001), protease/phosphatase inhibitor tablet (Thermo Fisher #A32959)]. Lysates were clarified by centrifugation and 50 μL/well added into the human phospho-Mer DuoSet IC ELISA (R&D Systems #DYC2579-2). Assay was performed according to manufacturer's instructions and sample phospho-Mer concentrations were extrapolated using human phospho-Mer control (R&D Systems #841793) as a standard. Positive control wells (100% activity) contained DMSO-treated cell lysates. Negative control wells (0% activity) contained reference inhibitor-treated cell lysates. IC50 values were calculated by nonlinear regression analysis using a 4-parameter logistic curve fit in ActivityBase XE (IDBS).

Another experiment concerns the target AXL (Homo sapiens (Human), UniProt P30530). Put plainly: AXL autophosphorylation ELISA in A-172 cells. The settings on record: cellular, Gas6 stimulated. The gist of the method:
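Serum-starved (24 h) A-172 glioblastoma cells pretreated 1 h with compounds (8-point curve, 0.3% DMSO), then stimulated 15 min with 1 μg/mL Gas6. Lysate phospho-AXL measured by sandwich ELISA against a phospho-AXL standard; IC50 from 4-parameter logistic fit between DMSO and reference-inhibitor controls.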

In the next experiment the target is Met (Homo sapiens (Human), UniProt P08581). Put plainly: Met autophosphorylation ELISA in PC-3 cells. Particulars: cellular, HGF stimulated, read-out: c-Met IC50. The procedure, abridged:
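PC-3 cells serum-starved 3 h, treated 1 h with 8-point compound series (0.3% DMSO), then stimulated with 100 ng/mL human HGF for 10 min. Lysate phospho-Met (panTyr) measured by sandwich ELISA; IC50 from 4-parameter logistic fit against DMSO and reference-inhibitor controls.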

The target of a further experiment is KDR (Homo sapiens (Human), UniProt P35968). Put plainly: KDR autophosphorylation ELISA in HUVEC cells. Particulars: cellular, VEGF165 stimulated. The procedure, abridged:
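HUVECs grown 24 h at 37 °C, then serum-starved 24 h, were preincubated 1 h with an 8-point compound series (0.3% DMSO) and stimulated with 100 ng/mL human VEGF165 for 5 min. Phospho-KDR in lysates was measured by sandwich ELISA against a phospho-KDR standard; IC50 from 4-parameter logistic fit.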

Chain of AXL (P30530 26-894): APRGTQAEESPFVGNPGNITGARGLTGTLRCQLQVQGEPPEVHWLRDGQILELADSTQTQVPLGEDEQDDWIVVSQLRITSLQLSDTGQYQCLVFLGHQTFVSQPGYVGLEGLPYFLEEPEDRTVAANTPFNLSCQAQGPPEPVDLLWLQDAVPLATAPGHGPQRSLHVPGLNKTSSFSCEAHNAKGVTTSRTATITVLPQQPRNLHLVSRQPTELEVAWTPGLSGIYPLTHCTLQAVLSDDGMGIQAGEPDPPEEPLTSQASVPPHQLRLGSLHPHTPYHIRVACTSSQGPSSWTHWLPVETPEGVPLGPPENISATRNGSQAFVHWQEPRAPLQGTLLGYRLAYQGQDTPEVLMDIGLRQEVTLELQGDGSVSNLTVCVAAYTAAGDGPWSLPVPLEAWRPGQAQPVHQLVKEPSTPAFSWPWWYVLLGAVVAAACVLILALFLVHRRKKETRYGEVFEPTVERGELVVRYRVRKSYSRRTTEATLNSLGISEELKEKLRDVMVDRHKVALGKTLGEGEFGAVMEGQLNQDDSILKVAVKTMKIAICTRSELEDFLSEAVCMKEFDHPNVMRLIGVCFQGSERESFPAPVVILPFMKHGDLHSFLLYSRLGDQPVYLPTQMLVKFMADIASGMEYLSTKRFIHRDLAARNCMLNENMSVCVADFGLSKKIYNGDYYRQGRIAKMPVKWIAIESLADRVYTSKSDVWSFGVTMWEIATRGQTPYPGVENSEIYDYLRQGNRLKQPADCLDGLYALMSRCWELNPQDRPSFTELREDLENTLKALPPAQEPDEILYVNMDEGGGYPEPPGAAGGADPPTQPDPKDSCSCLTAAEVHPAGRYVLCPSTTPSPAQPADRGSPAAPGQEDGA
Chain of Met (P08581 25-1390): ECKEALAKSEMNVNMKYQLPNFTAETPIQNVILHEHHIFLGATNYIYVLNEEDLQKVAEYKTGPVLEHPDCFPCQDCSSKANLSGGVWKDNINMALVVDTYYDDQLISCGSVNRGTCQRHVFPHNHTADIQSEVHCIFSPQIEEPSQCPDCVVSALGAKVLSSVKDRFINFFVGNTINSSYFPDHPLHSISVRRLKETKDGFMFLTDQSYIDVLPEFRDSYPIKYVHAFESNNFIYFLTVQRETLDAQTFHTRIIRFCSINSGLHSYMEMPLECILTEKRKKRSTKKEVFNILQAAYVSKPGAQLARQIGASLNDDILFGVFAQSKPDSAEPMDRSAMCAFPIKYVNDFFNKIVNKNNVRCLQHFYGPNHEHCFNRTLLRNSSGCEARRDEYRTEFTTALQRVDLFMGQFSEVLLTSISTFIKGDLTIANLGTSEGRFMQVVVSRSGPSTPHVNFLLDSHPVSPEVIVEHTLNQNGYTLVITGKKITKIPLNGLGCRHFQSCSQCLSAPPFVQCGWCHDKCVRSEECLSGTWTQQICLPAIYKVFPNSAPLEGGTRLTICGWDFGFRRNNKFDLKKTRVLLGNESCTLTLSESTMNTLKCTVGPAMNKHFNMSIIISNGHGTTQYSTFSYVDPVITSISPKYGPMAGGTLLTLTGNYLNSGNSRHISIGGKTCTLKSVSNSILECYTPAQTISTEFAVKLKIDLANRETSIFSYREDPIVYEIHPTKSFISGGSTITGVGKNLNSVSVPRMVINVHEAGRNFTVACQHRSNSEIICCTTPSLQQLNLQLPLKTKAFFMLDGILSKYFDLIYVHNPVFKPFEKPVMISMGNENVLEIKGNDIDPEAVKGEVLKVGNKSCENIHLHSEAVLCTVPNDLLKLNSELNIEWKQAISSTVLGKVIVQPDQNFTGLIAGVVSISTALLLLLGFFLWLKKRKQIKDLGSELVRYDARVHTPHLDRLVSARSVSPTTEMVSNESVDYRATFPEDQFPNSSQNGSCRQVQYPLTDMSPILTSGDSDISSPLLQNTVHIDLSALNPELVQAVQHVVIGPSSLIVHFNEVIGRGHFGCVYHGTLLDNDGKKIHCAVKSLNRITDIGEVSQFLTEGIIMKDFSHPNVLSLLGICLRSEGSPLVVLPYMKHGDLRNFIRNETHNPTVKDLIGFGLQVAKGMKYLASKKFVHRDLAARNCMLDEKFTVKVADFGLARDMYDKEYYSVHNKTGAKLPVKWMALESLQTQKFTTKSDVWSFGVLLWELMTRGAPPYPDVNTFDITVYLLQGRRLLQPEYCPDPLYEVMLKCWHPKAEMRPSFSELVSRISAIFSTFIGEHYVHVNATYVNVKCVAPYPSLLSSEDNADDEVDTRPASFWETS
Chain of KDR (P35968 20-1356): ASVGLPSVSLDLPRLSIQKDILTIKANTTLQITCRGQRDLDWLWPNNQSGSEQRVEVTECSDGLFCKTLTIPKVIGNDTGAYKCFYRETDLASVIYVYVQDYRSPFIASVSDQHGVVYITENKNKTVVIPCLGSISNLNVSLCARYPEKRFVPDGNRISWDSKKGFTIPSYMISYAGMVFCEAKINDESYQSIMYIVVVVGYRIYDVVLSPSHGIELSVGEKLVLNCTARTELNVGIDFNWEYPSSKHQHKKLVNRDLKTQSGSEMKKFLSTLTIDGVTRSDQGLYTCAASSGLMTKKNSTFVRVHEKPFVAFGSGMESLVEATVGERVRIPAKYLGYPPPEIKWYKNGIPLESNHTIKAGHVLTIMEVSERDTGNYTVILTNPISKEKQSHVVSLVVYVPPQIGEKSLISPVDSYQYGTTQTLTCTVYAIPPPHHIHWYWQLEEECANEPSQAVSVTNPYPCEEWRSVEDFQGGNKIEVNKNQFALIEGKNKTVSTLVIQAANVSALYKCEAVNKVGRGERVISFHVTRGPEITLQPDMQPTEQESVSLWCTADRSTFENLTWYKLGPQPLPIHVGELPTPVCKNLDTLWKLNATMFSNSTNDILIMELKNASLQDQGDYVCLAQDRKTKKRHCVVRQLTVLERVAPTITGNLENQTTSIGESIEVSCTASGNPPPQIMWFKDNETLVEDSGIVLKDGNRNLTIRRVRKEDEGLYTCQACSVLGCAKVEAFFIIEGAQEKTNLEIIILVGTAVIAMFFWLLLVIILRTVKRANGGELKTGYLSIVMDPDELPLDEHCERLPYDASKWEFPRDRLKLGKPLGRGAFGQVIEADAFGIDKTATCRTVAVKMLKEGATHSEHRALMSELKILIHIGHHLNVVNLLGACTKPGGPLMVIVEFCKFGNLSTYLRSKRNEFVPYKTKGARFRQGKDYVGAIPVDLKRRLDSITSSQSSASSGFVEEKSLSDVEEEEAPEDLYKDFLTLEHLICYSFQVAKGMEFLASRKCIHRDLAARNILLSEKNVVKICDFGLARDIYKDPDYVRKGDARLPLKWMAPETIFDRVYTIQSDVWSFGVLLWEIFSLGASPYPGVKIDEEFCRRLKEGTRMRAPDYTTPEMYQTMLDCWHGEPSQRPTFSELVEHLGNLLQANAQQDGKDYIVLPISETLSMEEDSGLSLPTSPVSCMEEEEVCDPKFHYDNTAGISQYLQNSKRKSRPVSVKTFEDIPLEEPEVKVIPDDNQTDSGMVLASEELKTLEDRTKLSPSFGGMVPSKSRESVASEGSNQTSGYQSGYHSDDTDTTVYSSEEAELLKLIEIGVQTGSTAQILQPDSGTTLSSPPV
Chain of Mer (Q12866 21-999): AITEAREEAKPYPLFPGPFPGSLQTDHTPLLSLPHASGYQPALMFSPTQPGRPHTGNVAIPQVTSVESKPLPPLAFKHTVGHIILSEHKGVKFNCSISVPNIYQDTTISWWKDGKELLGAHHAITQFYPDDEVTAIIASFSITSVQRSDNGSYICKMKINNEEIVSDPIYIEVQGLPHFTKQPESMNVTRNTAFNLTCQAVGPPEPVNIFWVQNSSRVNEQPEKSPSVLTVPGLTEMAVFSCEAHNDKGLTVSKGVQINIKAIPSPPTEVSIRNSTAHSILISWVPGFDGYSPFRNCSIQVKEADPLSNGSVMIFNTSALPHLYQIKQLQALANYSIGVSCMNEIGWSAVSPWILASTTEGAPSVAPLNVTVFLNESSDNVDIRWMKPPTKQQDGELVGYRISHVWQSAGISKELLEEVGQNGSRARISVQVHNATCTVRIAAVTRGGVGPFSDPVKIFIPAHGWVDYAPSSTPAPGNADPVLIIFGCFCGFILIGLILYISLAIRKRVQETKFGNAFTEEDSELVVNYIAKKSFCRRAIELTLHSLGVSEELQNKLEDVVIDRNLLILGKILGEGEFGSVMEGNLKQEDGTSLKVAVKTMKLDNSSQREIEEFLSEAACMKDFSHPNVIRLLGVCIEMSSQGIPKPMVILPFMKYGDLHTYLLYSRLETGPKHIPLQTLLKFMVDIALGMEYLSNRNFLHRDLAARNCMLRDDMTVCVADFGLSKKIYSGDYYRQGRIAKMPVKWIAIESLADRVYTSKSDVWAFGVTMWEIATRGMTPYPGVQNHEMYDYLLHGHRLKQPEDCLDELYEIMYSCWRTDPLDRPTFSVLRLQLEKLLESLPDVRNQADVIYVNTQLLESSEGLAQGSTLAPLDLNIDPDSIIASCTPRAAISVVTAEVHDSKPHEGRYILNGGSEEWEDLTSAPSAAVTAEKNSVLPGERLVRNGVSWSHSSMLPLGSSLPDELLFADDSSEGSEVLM

Turning to `O=C(Nc1ccc(F)cc1)C1(C(=O)Nc2ccc(Oc3ccnc4cc(OCCO)c(-c5ncco5)cc34)cc2)CC1` [Compound 50, 1-N′-(4-Fluorophenyl)-1-N-[4-[7-(2-hydroxyethoxy)-6-(1,3-oxazol-2-yl)quinolin-4-yl]oxyphenyl]cyclopropane-1,1-dicarboxamide], the IC50 against Mer, against AXL, at Met and against KDR was not above 10 nM each time.

On to `COc1cc2nccc(Oc3ccc(NC(=O)C4(C(=O)Nc5ccc(F)cc5)CC4)cc3)c2cc1P(C)(C)=O` [Compound 51, 1-N-[4-(6-Dimethylphosphoryl-7-methoxyquinolin-4-yl)oxyphenyl]-1-N′-(4-fluorophenyl)cyclopropane-1,1-dicarboxamide], for which the half-maximal inhibitory concentration (IC50) against Mer was in the range of 100 to 300 nM; against AXL it was 10 to 100 nM; at Met, 10 to 100 nM; at KDR, 100 to 300 nM.

`NC(=O)c1cc2c(Oc3ccc(NC(=O)C4(C(=O)Nc5ccc(F)cc5)CC4)cc3)ccnc2cc1NCCCN1CCOCC1` [Compound 71, 1-N-[4-[6-Carbamoyl-7-(3-morpholin-4-ylpropylamino)quinolin-4-yl]oxyphenyl]-1-N′-(4-fluorophenyl)cyclopropane-1,1-dicarboxamide]: the concentration for half-maximal inhibition (IC50) against Mer, at AXL, at Met and at KDR was 10 to 100 nM throughout.

Consider `CCC1NC(=O)c2cc3c(Oc4ccc(NC(=O)C5(C(=O)Nc6ccc(F)cc6)CC5)cc4)ccnc3cc2O1` (centres unmarked) [Compound 96, 1-N-[4-[(2-Ethyl-4-oxo-2,3-dihydropyrido[3,2-g][1,3]benzoxazin-6-yl)oxy]phenyl]-1-N′-(4-fluorophenyl)cyclopropane-1,1-dicarboxamide], for which the 50% inhibitory concentration (IC50) was in the range of 10 to 100 nM at Mer, 10 to 100 nM against AXL, 100 to 300 nM at Met and 100 to 300 nM at KDR.

`CNC(=O)c1cc2c(Oc3ccc(NC(=O)C4(C(=O)Nc5ccc(F)cc5)CC4)cc3)ccnc2cc1OCCO` [Compound 110, 1-N′-(4-Fluorophenyl)-1-N-[4-[7-(2-hydroxyethoxy)-6-(methylcarbamoyl)quinolin-4-yl]oxyphenyl]cyclopropane-1,1-dicarboxamide]: the IC50 against Mer is 10 to 100 nM; against AXL, not above 10 nM; on Met, not above 10 nM; against KDR it was not above 10 nM.

`CC(O)COc1cc2nccc(Oc3ccc(NC(=O)C4(C(=O)Nc5ccc(F)cc5)CC4)cc3)c2cc1C(N)=O` (centres unmarked) [Compound 115, 1-N-[4-[6-Carbamoyl-7-(2-hydroxypropoxy)quinolin-4-yl]oxyphenyl]-1-N′-(4-fluorophenyl)cyclopropane-1,1-dicarboxamide]: the 50% inhibitory concentration (IC50) at Mer is 10 to 100 nM; against AXL, not above 10 nM; at Met it was 10 to 100 nM; at KDR it was not above 10 nM.

As to `CNC(=O)c1cc2c(Oc3ccc(NC(=O)C4(C(=O)Nc5ccc(F)cc5)CC4)cc3)ccnc2cc1OCC(C)O` (centres unmarked) [Compound 116, 1-N′-(4-Fluorophenyl)-1-N-[4-[7-(2-hydroxypropoxy)-6-(methylcarbamoyl)quinolin-4-yl]oxyphenyl]cyclopropane-1,1-dicarboxamide], the concentration for half-maximal inhibition (IC50) was 10 to 100 nM against Mer, not above 10 nM against AXL, 10 to 100 nM at Met and not above 10 nM on KDR.

As to `CC(O)COc1cc2nccc(Oc3ccc(NC(=O)C4(C(=O)Nc5ccc(F)cc5)CC4)cc3)c2cc1-c1ncco1` (centres unmarked) [Compound 125, 1-N′-(4-Fluorophenyl)-1-N-[4-[7-(2-hydroxypropoxy)-6-(1,3-oxazol-2-yl)quinolin-4-yl]oxyphenyl]cyclopropane-1,1-dicarboxamide], the IC50 against Mer was not above 10 nM; on AXL, not above 10 nM; at Met it was 10 to 100 nM; at KDR it was 10 to 100 nM.

Regarding `O=C(NOC[C@H](O)CO)c1ccc2c(Oc3ccc(NC(=O)C4(C(=O)Nc5ccc(F)cc5)CC4)cc3)ccnc2c1` [Compound 169, 1-N-[4-[7-[[(2R)-2,3-Dihydroxypropoxy]carbamoyl]quinolin-4-yl]oxyphenyl]-1-N′-(4-fluorophenyl)cyclopropane-1,1-dicarboxamide], the IC50 against Mer was more than 300 nM; against AXL, 100 to 300 nM; on Met, 100 to 300 nM; at KDR, 100 to 300 nM.

As to `COc1cc2nccc(Oc3ccc(NC(=O)C4(C(=O)Nc5ccc(F)cc5)CC4)cc3)c2cc1-c1cnco1` [Compound 192, 1-N′-(4-Fluorophenyl)-1-N-[4-[7-methoxy-6-(1,3-oxazol-5-yl)quinolin-4-yl]oxyphenyl]cyclopropane-1,1-dicarboxamide], the IC50 was not above 10 nM on Mer, not above 10 nM at AXL, 10 to 100 nM at Met and not above 10 nM on KDR.

On to `CNS(=O)(=O)c1cc2c(Oc3ccc(NC(=O)C4(C(=O)Nc5ccc(F)cc5)CC4)cc3)ccnc2cc1OC` [Compound 207, 1-N′-(4-Fluorophenyl)-1-N-[4-[7-methoxy-6-(methylsulfamoyl)quinolin-4-yl]oxyphenyl]cyclopropane-1,1-dicarboxamide], for which the concentration for half-maximal inhibition (IC50) against Mer, against AXL, on Met and against KDR was 10 to 100 nM each time.

As to `CCNS(=O)(=O)c1cc2c(Oc3ccc(NC(=O)C4(C(=O)Nc5ccc(F)cc5)CC4)cc3)ccnc2cc1OC` [Compound 208, 1-N-[4-[6-(Ethylsulfamoyl)-7-methoxyquinolin-4-yl]oxyphenyl]-1-N′-(4-fluorophenyl)cyclopropane-1,1-dicarboxamide], the IC50 on Mer, against AXL, at Met and against KDR was 10 to 100 nM throughout.

On to `CONC(=O)c1ccc2c(Oc3ccc(NC(=O)C4(C(=O)Nc5ccc(F)cc5)CC4)cc3)ccnc2c1` [Compound 213, 1-N′-(4-Fluorophenyl)-1-N-[4-[7-(methoxycarbamoyl)quinolin-4-yl]oxyphenyl]cyclopropane-1,1-dicarboxamide], for which the 50% inhibitory concentration (IC50) lay in the range of 10 to 100 nM against Mer, 10 to 100 nM against AXL, 10 to 100 nM at Met and 100 to 300 nM against KDR.

Take `CCNC(=O)c1ccc2c(Oc3ccc(NC(=O)C4(C(=O)Nc5ccc(F)cc5)CC4)cc3)ccnc2c1` [Compound 214, 1-N-[4-[7-(Ethylcarbamoyl)quinolin-4-yl]oxyphenyl]-1-N′-(4-fluorophenyl)cyclopropane-1,1-dicarboxamide]: the IC50 on Mer, on AXL, on Met and against KDR was 10 to 100 nM throughout.

For `CNC(=O)c1cc2c(Oc3ccc(NC(=O)C4(C(=O)Nc5ccc(F)cc5Cl)CC4)cc3F)ccnc2cc1OC` [Compound 264, 1-N′-(2-Chloro-4-fluorophenyl)-1-N-[3-fluoro-4-[7-methoxy-6-(methylcarbamoyl)quinolin-4-yl]oxyphenyl]cyclopropane-1,1-dicarboxamide], the half-maximal inhibitory concentration (IC50) at Mer, on AXL, on Met and at KDR was 10 to 100 nM each time.

In the case of `CNC(=O)c1cc2c(Oc3ccc(NC(=O)C4(C(=O)Nc5ccc(F)cc5C)CC4)cc3F)ccnc2cc1OC` [Compound 265, 1-N-[3-Fluoro-4-[7-methoxy-6-(methylcarbamoyl)quinolin-4-yl]oxyphenyl]-1-N′-(4-fluoro-2-methylphenyl)cyclopropane-1,1-dicarboxamide], the 50% inhibitory concentration (IC50) is 10 to 100 nM against Mer, not above 10 nM on AXL, 10 to 100 nM on Met and 10 to 100 nM against KDR.

Take `CNC(=O)c1cc2c(Oc3ccc(NC(=O)C4(C(=O)Nc5ccc(F)cc5OC)CC4)cc3F)ccnc2cc1OC` [Compound 268, 1-N-[3-Fluoro-4-[7-methoxy-6-(methylcarbamoyl)quinolin-4-yl]oxyphenyl]-1-N′-(4-fluoro-2-methoxyphenyl)cyclopropane-1,1-dicarboxamide]: the IC50 against Mer is 10 to 100 nM; at AXL it was not above 10 nM; at Met, 10 to 100 nM; at KDR, not above 10 nM.

(Values after patent US11542259B2, “Compounds for the treatment of kinase-dependent disorders” (Exelixis, Inc., priority 2018, dated 2023).)
